Source: ChEMBL document CHEMBL1137514, “Synthesis and biological evaluation of non-peptide alpha(v)beta(3)/alpha(5)beta(1) integrin dual antagonists containing 5,6-dihydropyridin-2-one scaffolds” (Bioorg Med Chem, 2007)
Each block holds one compound with its values, some of them ahead of it. Residues, ends and D or L forms follow the SMILES beside them.

How the values were obtained:
Integrin alpha-5/beta-1 = Integrin alpha-5/beta-1 (Homo sapiens, UniProt P05556+P08648); assay: Inhibition of integrin alpha-5-beta-1-mediated K562 cell adhesion to fibronectin; type: cell-based
Sequence of Integrin alpha-5/beta-1 (P05556 21-798 limits assumed): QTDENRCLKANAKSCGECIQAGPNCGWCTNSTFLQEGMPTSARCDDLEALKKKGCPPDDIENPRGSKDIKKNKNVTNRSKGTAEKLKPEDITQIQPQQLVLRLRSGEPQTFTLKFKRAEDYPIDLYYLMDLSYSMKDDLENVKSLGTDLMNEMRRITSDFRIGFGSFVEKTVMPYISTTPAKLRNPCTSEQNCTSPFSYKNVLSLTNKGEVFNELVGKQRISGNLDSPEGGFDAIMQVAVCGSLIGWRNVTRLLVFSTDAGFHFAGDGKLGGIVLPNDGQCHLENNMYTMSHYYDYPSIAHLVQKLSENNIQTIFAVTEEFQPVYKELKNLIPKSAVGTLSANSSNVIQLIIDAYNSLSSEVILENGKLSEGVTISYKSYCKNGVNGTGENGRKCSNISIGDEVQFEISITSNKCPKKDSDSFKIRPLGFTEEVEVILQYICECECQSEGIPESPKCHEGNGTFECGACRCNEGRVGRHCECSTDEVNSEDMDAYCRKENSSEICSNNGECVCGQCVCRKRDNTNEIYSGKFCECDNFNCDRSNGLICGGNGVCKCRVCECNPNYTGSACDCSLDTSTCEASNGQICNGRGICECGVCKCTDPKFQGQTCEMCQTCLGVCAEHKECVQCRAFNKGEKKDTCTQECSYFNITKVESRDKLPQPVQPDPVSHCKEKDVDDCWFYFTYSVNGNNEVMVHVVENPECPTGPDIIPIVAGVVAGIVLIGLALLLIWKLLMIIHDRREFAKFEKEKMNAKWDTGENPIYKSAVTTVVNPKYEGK
Sequence of Integrin alpha-5/beta-1 (P08648 42-894 limits assumed): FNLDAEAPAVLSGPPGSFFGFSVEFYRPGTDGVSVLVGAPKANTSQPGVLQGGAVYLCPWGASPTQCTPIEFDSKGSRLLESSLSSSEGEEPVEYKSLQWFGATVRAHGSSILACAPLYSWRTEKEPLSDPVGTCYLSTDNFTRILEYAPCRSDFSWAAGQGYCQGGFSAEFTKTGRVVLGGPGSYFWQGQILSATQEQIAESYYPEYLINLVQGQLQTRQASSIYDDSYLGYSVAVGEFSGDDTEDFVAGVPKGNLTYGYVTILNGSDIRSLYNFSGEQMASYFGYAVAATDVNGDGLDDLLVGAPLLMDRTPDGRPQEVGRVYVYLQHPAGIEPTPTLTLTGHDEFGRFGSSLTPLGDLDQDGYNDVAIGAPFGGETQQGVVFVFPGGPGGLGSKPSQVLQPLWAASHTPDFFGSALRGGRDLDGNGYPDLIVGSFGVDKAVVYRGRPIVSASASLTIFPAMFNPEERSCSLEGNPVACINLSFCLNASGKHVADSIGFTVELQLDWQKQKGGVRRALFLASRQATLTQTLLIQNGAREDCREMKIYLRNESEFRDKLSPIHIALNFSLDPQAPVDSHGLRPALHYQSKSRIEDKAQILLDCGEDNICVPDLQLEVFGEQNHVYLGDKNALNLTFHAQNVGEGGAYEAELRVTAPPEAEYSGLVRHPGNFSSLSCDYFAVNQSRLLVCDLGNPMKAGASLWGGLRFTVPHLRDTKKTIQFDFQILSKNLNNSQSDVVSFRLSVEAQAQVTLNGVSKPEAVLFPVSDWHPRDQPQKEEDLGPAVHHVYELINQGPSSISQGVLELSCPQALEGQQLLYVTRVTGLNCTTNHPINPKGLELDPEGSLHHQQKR
Sequence of Integrin alpha-5/beta-1 (P08648 895-1049 limits assumed): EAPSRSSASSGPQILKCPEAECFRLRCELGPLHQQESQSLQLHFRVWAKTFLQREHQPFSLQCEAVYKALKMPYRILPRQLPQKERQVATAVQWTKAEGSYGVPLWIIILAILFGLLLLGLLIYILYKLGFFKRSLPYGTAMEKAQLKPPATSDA

Integrin alpha-V/beta-3 = Integrin alpha-V/beta-3 (Homo sapiens, UniProt P05106+P06756); assay: Inhibition of integrin alpha-V-beta-3-mediated SK-MEL-24 cell adhesion to fibronectin
Sequence of Integrin alpha-V/beta-3 (P05106 27-788 limits assumed): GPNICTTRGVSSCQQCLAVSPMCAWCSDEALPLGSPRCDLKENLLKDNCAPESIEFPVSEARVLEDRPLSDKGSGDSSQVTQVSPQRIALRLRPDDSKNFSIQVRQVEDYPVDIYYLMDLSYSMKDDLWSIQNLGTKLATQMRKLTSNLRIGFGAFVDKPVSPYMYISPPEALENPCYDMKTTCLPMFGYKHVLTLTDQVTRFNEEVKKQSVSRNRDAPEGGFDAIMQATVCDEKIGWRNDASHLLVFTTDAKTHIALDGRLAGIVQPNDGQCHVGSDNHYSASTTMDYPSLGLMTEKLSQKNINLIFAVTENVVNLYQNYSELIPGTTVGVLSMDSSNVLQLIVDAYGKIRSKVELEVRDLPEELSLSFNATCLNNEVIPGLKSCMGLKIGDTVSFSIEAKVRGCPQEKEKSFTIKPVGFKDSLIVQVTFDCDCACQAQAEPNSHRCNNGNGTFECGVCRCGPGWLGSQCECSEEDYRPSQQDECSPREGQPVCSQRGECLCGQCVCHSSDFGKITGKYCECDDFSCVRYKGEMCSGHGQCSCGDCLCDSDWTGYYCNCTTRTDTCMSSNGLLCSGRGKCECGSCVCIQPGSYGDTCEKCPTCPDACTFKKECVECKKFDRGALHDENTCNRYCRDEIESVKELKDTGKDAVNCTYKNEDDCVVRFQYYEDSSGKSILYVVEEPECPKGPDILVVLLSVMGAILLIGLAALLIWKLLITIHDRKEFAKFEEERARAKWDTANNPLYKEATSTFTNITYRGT
Sequence of Integrin alpha-V/beta-3 (P06756 31-889 limits assumed): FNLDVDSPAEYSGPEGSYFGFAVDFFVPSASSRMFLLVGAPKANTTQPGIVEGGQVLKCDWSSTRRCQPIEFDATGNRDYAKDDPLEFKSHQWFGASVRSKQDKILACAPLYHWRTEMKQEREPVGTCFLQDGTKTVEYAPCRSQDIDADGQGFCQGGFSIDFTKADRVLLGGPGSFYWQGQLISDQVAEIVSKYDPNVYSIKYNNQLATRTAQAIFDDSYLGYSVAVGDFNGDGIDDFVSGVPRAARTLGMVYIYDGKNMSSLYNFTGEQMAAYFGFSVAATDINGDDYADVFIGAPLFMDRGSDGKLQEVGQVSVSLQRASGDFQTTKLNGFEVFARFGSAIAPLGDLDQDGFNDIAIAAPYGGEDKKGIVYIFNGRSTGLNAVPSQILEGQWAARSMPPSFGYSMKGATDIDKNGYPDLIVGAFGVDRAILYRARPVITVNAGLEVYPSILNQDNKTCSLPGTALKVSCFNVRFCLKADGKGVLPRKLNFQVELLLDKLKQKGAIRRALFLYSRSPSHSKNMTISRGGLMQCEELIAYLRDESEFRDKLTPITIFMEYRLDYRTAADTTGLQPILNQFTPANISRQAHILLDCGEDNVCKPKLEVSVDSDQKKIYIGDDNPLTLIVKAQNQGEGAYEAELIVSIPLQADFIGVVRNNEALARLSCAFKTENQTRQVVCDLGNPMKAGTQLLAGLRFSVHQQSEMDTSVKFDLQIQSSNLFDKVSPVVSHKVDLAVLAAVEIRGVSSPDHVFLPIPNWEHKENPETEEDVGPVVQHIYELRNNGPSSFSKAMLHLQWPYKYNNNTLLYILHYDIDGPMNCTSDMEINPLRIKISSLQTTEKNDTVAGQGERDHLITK
Sequence of Integrin alpha-V/beta-3 (P06756 891-1048 limits assumed): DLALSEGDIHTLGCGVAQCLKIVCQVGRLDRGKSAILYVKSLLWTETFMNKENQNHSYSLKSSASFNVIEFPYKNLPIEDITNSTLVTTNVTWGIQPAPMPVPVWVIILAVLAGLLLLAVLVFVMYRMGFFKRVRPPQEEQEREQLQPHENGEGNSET

Compound: CCCN(C(=O)C(CC(=O)OC)C(=O)O)C1=C(C)CC(c2ccccc2)N(Cc2ccc(N)cc2)C1=O (configuration not stated)
IC50 (Integrin alpha-5/beta-1): > 1000 µM
IC50 (Integrin alpha-V/beta-3): 45 µM

Compound: CCCN(C(=O)C(CC(=O)O)C(=O)O)C1=C(C)CC(c2ccccc2)N(Cc2ccc(N)cc2)C1=O (configuration not stated)
IC50 (Integrin alpha-5/beta-1): > 1000 µM
IC50 (Integrin alpha-V/beta-3): > 1000 µM

Compound: CCCN(C(=O)CCN)C1=C(C)CC(c2ccccc2)N(CCC(=O)O)C1=O (configuration not stated)
IC50 (Integrin alpha-5/beta-1): > 1000 µM
IC50 (Integrin alpha-V/beta-3): > 1000 µM

Compound: CCCN(C(=O)CCCCCN)C1=C(C)CC(c2ccccc2)N(CCC(=O)O)C1=O (configuration not stated)
IC50 (Integrin alpha-5/beta-1): > 1000 µM
IC50 (Integrin alpha-V/beta-3): > 1000 µM

Compound: CCCN(C(=O)CC(=O)O)C1=C(C)CC(c2ccc(C(=N)N)cc2)N([C@@H](C)c2ccc(OC)cc2)C1=O (some centres not stated)
IC50 (Integrin alpha-5/beta-1): > 1000 µM
IC50 (Integrin alpha-V/beta-3): > 1000 µM

Compound: CCCN(C(=O)CC(=O)O)C1=C(C)CC(c2ccccc2)N(Cc2ccc(C(=N)N)cc2)C1=O (configuration not stated)
IC50 (Integrin alpha-5/beta-1): > 1000 µM
IC50 (Integrin alpha-V/beta-3): 120 µM

Compound: CCCN(C(=O)CC(=O)O)C1=C(C)C[C@@H](c2ccc(N)cc2)N([C@@H](C)c2ccc(OC)cc2)C1=O
IC50 (Integrin alpha-5/beta-1): > 1000 µM
IC50 (Integrin alpha-V/beta-3): 0.24 µM

Compound: CCCN(C(=O)CCC(=O)O)C1=C(C)CC(c2ccccc2)N(Cc2ccc(C(=N)N)cc2)C1=O (configuration not stated)
IC50 (Integrin alpha-5/beta-1): > 1000 µM
IC50 (Integrin alpha-V/beta-3): > 1000 µM

Compound: CCCN(C(=O)C(CC(=O)OC)C(=O)O)C1=C(C)CC(c2ccccc2)N(Cc2ccc(C(=N)N)cc2)C1=O (configuration not stated)
IC50 (Integrin alpha-5/beta-1): > 1000 µM
IC50 (Integrin alpha-V/beta-3): > 1000 µM

Now from value to compound:

IC50 (Integrin alpha-5/beta-1): > 1000 µM
IC50 (Integrin alpha-V/beta-3): > 1000 µM
Compound: CCCN(C(=O)C(CC(=O)O)C(=O)O)C1=C(C)CC(c2ccccc2)N(Cc2ccc(C(=N)N)cc2)C1=O (configuration not stated)

IC50 (Integrin alpha-5/beta-1): 0.17 µM
IC50 (Integrin alpha-V/beta-3): 0.6 µM
Compound: CCCN(C(=O)CC(=O)O)C1=C(C)CC(c2ccccc2)N(Cc2ccc(N)cc2)C1=O (configuration not stated)

IC50 (Integrin alpha-5/beta-1): 0.043 µM
IC50 (Integrin alpha-V/beta-3): 0.038 µM
Compound: CCCN(C(=O)CC(=O)O)C1=C(C)CC(c2ccccc2)N(CCCCN)C1=O (configuration not stated)

IC50 (Integrin alpha-5/beta-1): 35.1 µM
IC50 (Integrin alpha-V/beta-3): 15.1 µM
Compound: CCCN(C(=O)CC(=O)O)C1=C(C)C[C@H](c2ccccc2)N([C@@H](C)c2ccc(N)cc2)C1=O

IC50 (Integrin alpha-5/beta-1): 0.057 µM
IC50 (Integrin alpha-V/beta-3): 0.071 µM
Compound: CCCN(C(=O)CC(=O)O)C1=C(C)C[C@@H](c2ccccc2)N([C@@H](C)c2ccc(N)cc2)C1=O

IC50 (Integrin alpha-5/beta-1): 0.018 µM
IC50 (Integrin alpha-V/beta-3): 21 µM
Compound: CCCN(C(=O)CC(=O)O)C1=C(C)C[C@H](c2ccc(N)cc2)N([C@@H](C)c2ccc(OC)cc2)C1=O

IC50 (Integrin alpha-5/beta-1): 259 µM
IC50 (Integrin alpha-V/beta-3): 0.025 µM
Compound: CC(=O)N[C@@H](CC(=O)O)C(=O)N[C@@H](CCCNC(=N)N)C(=O)N[C@@H](CC(C)C)C(=O)N[C@@H](CC(=O)O)C(=O)N[C@@H](CO)C(=O)O (Ac-DRLDS-OH)
